Laboratory results reported in ChEMBL document CHEMBL1125871, “Inhibitors of cholesterol biosynthesis. 4. trans-6-[2-(substituted-quinolinyl)ethenyl/ethyl]tetrahydro-4-hydroxy-2 H-pyran-2-ones, a novel series of HMG-CoA reductase inhibitors” (J Med Chem, 1991).

Columns and labels:
[1] = species: Rattus norvegicus; assay: Compound was tested for its Cholesterol Synthesis Inhibition ability in rats.; format: functional, organism-based
[2] = species: Rattus norvegicus; assay: Compound was evaluated for the percentage of acute inhibition of cholesterol synthesis (AICS) in male rats through peroral rout.; format: functional; parameters: concentration or dose not given beside the values
[3] = species: Rattus norvegicus; assay: (§1) Compound was tested for its relative Cholesterol Synthesis Inhibition as compared to compactin in rats.; format: functional
[4] = molecular target: T1, 3-hydroxy-3-methylglutaryl-coenzyme A reductase (Rattus norvegicus, UniProt P51639); assay: Compound was evaluated for the inhibition of HMG-CoA reductase (COR) in rats.
T1 sequence (P51639 whole entry): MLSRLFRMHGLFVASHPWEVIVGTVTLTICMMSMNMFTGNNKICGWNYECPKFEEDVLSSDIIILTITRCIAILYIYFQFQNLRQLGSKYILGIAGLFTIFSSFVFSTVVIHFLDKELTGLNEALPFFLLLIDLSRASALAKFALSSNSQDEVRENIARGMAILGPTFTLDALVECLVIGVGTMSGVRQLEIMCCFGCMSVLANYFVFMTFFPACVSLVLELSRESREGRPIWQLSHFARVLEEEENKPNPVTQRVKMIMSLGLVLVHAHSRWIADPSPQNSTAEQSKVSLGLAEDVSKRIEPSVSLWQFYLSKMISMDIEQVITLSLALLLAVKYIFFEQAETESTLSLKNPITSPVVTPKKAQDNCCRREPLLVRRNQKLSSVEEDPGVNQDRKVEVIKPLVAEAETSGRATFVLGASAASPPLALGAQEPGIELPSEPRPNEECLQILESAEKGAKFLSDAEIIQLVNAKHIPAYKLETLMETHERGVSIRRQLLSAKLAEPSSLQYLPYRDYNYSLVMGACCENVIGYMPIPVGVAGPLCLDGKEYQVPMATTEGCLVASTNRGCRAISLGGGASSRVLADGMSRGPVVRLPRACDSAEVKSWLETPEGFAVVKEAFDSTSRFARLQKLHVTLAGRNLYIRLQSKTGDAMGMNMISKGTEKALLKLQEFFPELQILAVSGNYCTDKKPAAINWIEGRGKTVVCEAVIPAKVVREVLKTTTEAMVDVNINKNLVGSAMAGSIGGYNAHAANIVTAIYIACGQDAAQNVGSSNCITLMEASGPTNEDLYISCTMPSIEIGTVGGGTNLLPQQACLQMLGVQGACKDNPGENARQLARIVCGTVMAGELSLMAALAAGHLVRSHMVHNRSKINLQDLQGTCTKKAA

[5] = as §1; format: functional

Cc1cnc2ccccc2c1/C=C/[C@@H]1C[C@@H](O)CC(=O)O1
IC50 [1]: > 1 µM
Inhibition [2]: 42%
Relative inhibition [3]: <1

COc1ccc2nc(C(C)C)c(/C=C/[C@@H]3C[C@@H](O)CC(=O)O3)c(-c3ccc(F)cc3)c2c1
IC50 [1]: 0.013 µM
Inhibition [2]: 60%
IC50 [4]: 0.053 µM
Relative inhibition [3]: 100

CC(C)c1c(/C=C/[C@@H]2C[C@@H](O)CC(=O)O2)c(-c2ccc(F)cc2)c2cc(F)ccc2[n+]1[O-]
IC50 [1]: 0.018 µM
Inhibition [2]: 47%
IC50 [4]: 0.079 µM
Relative inhibition [5]: 112

CN(C)c1nc2ccccc2c(-c2ccc(F)cc2)c1/C=C/[C@@H]1C[C@@H](O)CC(=O)O1
IC50 [1]: 0.047 µM
Inhibition [2]: 52%
IC50 [4]: 0.35 µM
Relative inhibition [3]: 13.2

CC(C)c1nc2ccccc2c(-c2ccc(F)cc2)c1CC[C@@H]1C[C@@H](O)CC(=O)O1
IC50 [1]: > 1 µM
Relative inhibition [3]: <1

CC(C)c1nc2ccc(Cl)cc2c(-c2ccc(F)cc2)c1/C=C/[C@@H]1C[C@@H](O)CC(=O)O1
IC50 [1]: 0.032 µM
Inhibition [2]: 61%
IC50 [4]: 0.025 µM
Relative inhibition [3]: 100

CC(C)c1nc2ccccc2c(-c2ccc(F)cc2)c1/C=C/[C@@H]1C[C@@H](O)CC(=O)O1
IC50 [1]: 0.042 µM
Inhibition [2]: 70%
IC50 [4]: 0.032 µM
Relative inhibition [3]: 75.8

Cc1nc2ccc(Cl)cc2c(-c2ccc(F)cc2)c1/C=C/[C@@H]1C[C@@H](O)CC(=O)O1
IC50 [1]: 0.4 µM
Inhibition [2]: 18%
IC50 [4]: 0.72 µM
Relative inhibition [3]: 6.3

CC(C)c1nc2ccc(F)cc2c(-c2ccc(F)cc2)c1/C=C/[C@@H]1C[C@@H](O)CC(=O)O1 (stereo in doubt; 8d)
IC50 [1]: 0.05 µM
Inhibition [2]: 68%
IC50 [4]: 0.2 µM
Relative inhibition [3]: 77.6

CC(C)c1nc2ccc(F)cc2c(-c2ccc(F)cc2)c1/C=C/[C@@H]1C[C@@H](O)CC(=O)O1 (stereo in doubt; 17)
Inhibition [2]: 69%

CC[C@H](C)C(=O)O[C@H]1C[C@@H](C)C=C2C=C[C@H](C)[C@H](CC[C@@H]3C[C@@H](O)CC(=O)O3)[C@H]21 [LOVASTATIN]
IC50 [1]: 0.025 µM
Inhibition [2]: 72%
IC50 [4]: 0.028 µM
Relative inhibition [3]: 118

CC[C@H](C)C(=O)O[C@H]1CCC=C2C=C[C@H](C)[C@H](CC[C@@H]3C[C@@H](O)CC(=O)O3)[C@H]21 [MEVASTATIN]
IC50 [1]: 0.03 µM
Inhibition [2]: 36%
